The values that follow come from US10710968B2 (Hadasit Medical Research Services and Development Ltd., priority 2016, dated 2020).

In series [1] the test system is NCI-H1975 cells (EGFR L858R + T790M). In words: Cell growth inhibition, methylene blue assay, NCI-H1975. Type of series: cell-based, human. The note with it: NCI-H1975, Double (L858R + T790M), 72 hours, mean±SD. The procedure: (§1) NCI-H1975 and HCC827 were obtained from the ATCC. QG56 cells were obtained from Prof. Alexander Levitzki's lab, The Silberman Institute of Life Sciences, the Hebrew University, Jerusalem. […] All media were supplemented with fetal bovine serum (FBS, (10%)) and antibiotics (penicillin 10^4 units/L, streptomycin 10 mg/L) (BI, Israel).
(§2) Four human NSCLC cell lines were selected: QG56, HCC827, NCI-H3255 and NCI-H1975. These cell lines harbor the prevailing EGFR variants identified in NSCLC patients, including the wild-type receptor (QG56 cells) and the two most common activating mutations in the TK domain of the receptor: an exon 19 deletion (ΔE746-A750) (HCC827 cells) and the L858R point mutation in exon 21 (NCI-H3255). NCI-H1975 cells were also selected, since on top of the activating L858R point mutation, these cells harbor the secondary T790M mutation in exon 20, which confers resistance to TKI-therapy.
(§3) The median inhibitory concentration (IC50) of the tested compound for cell growth of each cell line was then calculated using GraphPad Prism 5.0 software. Results are presented as mean±SD.

Series [2] relates to QG56 cells (wt EGFR). Kind of series: Cell growth inhibition, methylene blue assay, QG56. In kind it is cell-based, human. The note with it: QG56, None (wt EGFR), 72 hours, mean±SD. The procedure: as §1, §2, §3
The test system of series [3] is NCI-H3255 cells (EGFR L858R point mutation). Kind of series: Cell growth inhibition, methylene blue assay, NCI-H3255. The note with it: NCI-H3255, Activating (L858R point mutation), 72 hours, mean±SD. In kind it is cell-based, human. The protocol:
as §1, §2, §3

Series [4] concerns QG56 tumor. In words: PET/CT scans of QG56 tumor-bearing mice. Type of series: in vivo. The note with it: QG56 tumors, 60 minutes after i.v. injection. The protocol:
(§4) Dynamic (1 hour) PET scans are performed using Inveon™ MM PET-CT small animal-dedicated scanner (Siemens Medical Solutions, USA). […] Using image analysis tools, volume of interests (VOIs) are drawn for selected organs based on the PET and CT images, and the kinetics of radioactivity distribution in vivo (time-activity curves, (TACs)) is determined for these organs, and primarily for the NSCLC xenografts. The standardized uptake values (SUVs) of each radiolabeled compound in tumors are calculated and compared between the different tumors.
(§5) In additional PET/CT studies, five QG56 (erlotinib-insensitive) and five HCC827 (erlotinib-sensitive) tumor-bearing mice were scanned for 60 minutes following i.v. injection of [^18F]6-O-FEE (7.14±0.7 Mbq).

Series [5] is described as follows: Stability of the final formulation in solution (radio-TLC and HPLC). Type of series: physicochemical. The note with it: final formulation (ethanol/isotonic saline). The protocol: In brief, a solution of ethylene 1,2-(bis) tosylate (11-13 mg) dissolved in anhydrous MeCN ([…]) was added to the dried [^18F]fluoride. The reaction is heated to 120° C. while stirring for 10 minutes, and the reaction mixture was thereafter cooled to 50° C. The ^18F-fluoroethyltosylate was then further diluted with 1 mL MeCN and transferred to a second reactor that was pre-stirred and heated under argon stream for 5 minutes with 9-11 mg of desmethylerlotinib dissolved in 0.6 mL of DMF and 6-8 mg of NaH. […]
The radiochemical purity was determined using analytical HPLC equipped with C18 analytical Luna column (5 μm, 4.6 mm>250 mm, Luna, phenomenex, Torrance, Calif., USA), with a variable wavelength UV detector operated at λ=254 nm, and a radioactivity detector with NaI crystals, and was routinely greater than 98%. […] Solvent residues were analyzed by GC, using a 1 μL injection of the final product, and compared to a standard solution containing 0.04% acetonitrile and 0.5% acetone. […]

Series [6] relates to HCC827 tumor. In words: PET/CT scans of HCC827 tumor-bearing mice. In kind it is in vivo. The protocol: as §4, §5

The IC50 is the concentration that gives 50% inhibition.

Molecules are shown by their SMILES.

As for `C#Cc1cccc(Nc2ncnc3cc(OCCOC)c(OCCF)cc23)c1` [6-O-FEE, 6-O-fluoroethylerlotinib], the IC50 worked out at 3.6 ± 1 µM in series [1], 14.4 ± 5 µM in series [2] and 0.033 ± 0.04 µM in series [3].
For the compound `C#Cc1cccc(Nc2ncnc3cc(OCCOC)c(OCC[18F])cc23)c1` [[^18F]6-O-FEE, [^18F]6-fluoroethylerlotinib], the “tumor SUV” value in series [4] worked out at 0.28; in series [6] (HCC827 tumor-bearing mice, erlotinib in excess (6.1±0.3 mg/kg) 10 minutes prior to injection), 0.414; in series [6] (HCC827 tumor-bearing mice, without erlotinib pre-administration (blocking comparison)), 0.704; in series [6] (HCC827 tumors, 60 minutes after i.v. injection, mice), 0.70. Besides, the stability in solution result in series [5] is listed as “remained stable in solution for over four hours”. Moreover, the “higher uptake in HCC827 tumors compared to QG56 tumors” value in series [6] (60 minutes after i.v. injection, mice, p=0.0072) is reported as 2.5 fold. Further, the “reduction of tumor SUV by erlotinib in excess” value in series [6] (HCC827 tumor-bearing mice, erlotinib 6.1±0.3 mg/kg 10 minutes prior, p=0.018) was “about 40%”. Also, in series [6] (preliminary PET/CT study, i.v. injection, 60 minutes scan, mice), the “higher uptake in HCC827 tumor compared to NCI-H1975 tumor” value is 2.5-3 fold.
